The target of the assay is human PRMT3 (Homo sapiens, UniProt O60678). Nature of the assay: PRMT3 Biochemical Assay (3H-SAM Flashplate, peptide substrate). The note with it: single experiment or average of multiple experiments. From the text: S-adenosylmethionine (SAM), S-adenosylhomocysteine (SAH), bicine, Tween20, dimethylsulfoxide (DMSO), bovine skin gelatin (BSG), isopropyl-β-D-thiogalactopyranoside (IPTG), and Tris(2-carboxyethyl)phosphine hydrochloride solution (TCEP) were purchased from Sigma-Aldrich at the highest level of purity possible. ^3H-SAM was purchase from American Radiolabeled Chemicals with a specific activity of 80 Ci/mmol. 384-well streptavidin Flashplates were purchased from PerkinElmer.
Sequence of human PRMT3 (O60678 with tags, fused parts or gaps): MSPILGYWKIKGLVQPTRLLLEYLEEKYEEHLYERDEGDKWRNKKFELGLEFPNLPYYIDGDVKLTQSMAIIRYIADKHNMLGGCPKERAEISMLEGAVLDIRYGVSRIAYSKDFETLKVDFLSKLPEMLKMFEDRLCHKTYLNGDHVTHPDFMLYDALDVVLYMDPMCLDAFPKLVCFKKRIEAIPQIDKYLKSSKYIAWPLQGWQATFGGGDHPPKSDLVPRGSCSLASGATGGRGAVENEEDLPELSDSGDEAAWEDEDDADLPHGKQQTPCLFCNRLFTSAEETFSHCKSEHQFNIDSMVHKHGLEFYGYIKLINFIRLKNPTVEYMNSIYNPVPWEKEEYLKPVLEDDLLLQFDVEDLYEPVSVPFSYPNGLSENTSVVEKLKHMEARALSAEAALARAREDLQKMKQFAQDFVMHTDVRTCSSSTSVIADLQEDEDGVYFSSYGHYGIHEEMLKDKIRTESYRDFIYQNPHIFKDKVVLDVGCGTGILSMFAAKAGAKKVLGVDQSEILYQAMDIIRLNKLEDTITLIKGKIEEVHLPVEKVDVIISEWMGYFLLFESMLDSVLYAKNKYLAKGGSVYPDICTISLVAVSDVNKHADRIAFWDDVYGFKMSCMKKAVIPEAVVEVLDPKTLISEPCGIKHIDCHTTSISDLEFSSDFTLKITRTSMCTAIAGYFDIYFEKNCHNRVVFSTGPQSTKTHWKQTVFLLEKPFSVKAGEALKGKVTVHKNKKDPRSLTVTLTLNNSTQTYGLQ
Peptide containing the classic RMT substrate motif was synthesized with an N-terminal linker-affinity tag motif and a C-terminal amide cap by 21st Century Biochemicals. The peptide was purified by high-performance liquid chromatography (HPLC) to greater than 95% purity and confirmed by liquid chromatography mass spectrometry (LC-MS). The sequence was Biot-Ahx-[…]-amide (SEQ ID NO.:11).
Full-length human PRMT3 (NM_005788.3) isoform 1 transcript clone was amplified from an HEK 293 cDNA library and subcloned into pGEX-KG (GE Life Sciences). The resulting construct encodes an N-terminal GST tag and a thrombin cleavage sequence ([…] […] […] […]) (SEQ ID NO.: 12) fused directly to Cys 2 of PRMT3.
E. coli (BL21(DE3) Gold, Stratagene) made competent by the CaCl2 method were transformed with the PRMT3 construct and ampicillin selection. Protein over-expression was accomplished by growing the PRMT3 expressing E. coli clone and inducing expression with 0.3 mM IPTG at 16° C. The culture was grown for 12 hours, harvested by centrifugation, and stored at −80° C. for purification.
GST-tagged PRMT3 was eluted with 50 mM Tris, 2 mM glutathione, pH 7.1 and 50 mM Tris, 20 mM glutathione, pH 7.1. Pooled fractions were dialysed in 20 mM Tris, 50 mM NaCl, 5% glycerol, 1 mM EDTA, 1 mM DTT, pH7.5 (Buffer B) and applied to a Q Sepharose Fast Flow column. GST-tagged PRMT3 was eluted by 500 mM NaCl in buffer B. Pooled fractions were dialyzed in 25 mM phosphate buffer, 100 mM NaCl, 5% glycerol, 2 mM DTT, pH 6.8 (Buffer C) and loaded on to a ceramic hydroxyapatite column. GST-tagged PRMT3 eluted with 25-400 mM phosphate in buffer C. Protein was concentrated and buffer was exchanged to 20 mM Tris, 150 mM NaCl, 5% glycerol, 5 mM β-mercaptoethanol, pH7.8 by ultrafiltration. The purity of recovered protein was 70%.
General Procedure for PRMT3 Enzyme Assays on Peptide Substrates.
The assays were all performed in a buffer consisting of 20 mM Bicine (pH=7.6), 1 mM TCEP, 0.005% BSG, and 0.002% Tween 20, prepared on the day of use. Compounds in 100% DMSO (1 ul) were spotted into a polypropylene 384-well V-bottom plates (Greiner) using a Platemate Plus outfitted with a 384-channel head (Thermo Scientific). DMSO (1 ul) was added to Columns 11, 12, 23, 24, rows A-H for the maximum signal control and 1 ul of SAH, a known product and inhibitor of PRMT3, was added to columns 11, 12, 23, 24, rows I-P for the minimum signal control. A cocktail (40 ul) containing the PRMT3 enzyme was added by Multidrop Combi (Thermo-Fisher). The compounds were allowed to incubate with PRMT3 for 30 min at room temperature, then a cocktail (10 ul) containing SAM and peptide was added to initiate the reaction (final volume=51 ul). The final concentrations of the components were as follows: PRMT3 was 0.5 nM, ^3H-SAM was 100 nM, non-radiolabeled SAM was 1.8 uM, peptide was 330 nM, SAH in the minimum signal control wells was 1 mM, and the DMSO concentration was 2%. The assays were stopped by the addition of potassium chloride (10 ul) to a final concentration of 100 mM. 50 ul of the reaction in the 384-well polypropylene plate was then transferred to a 384-well Flashplate and the biotinylated peptides were allowed to bind to the streptavidin surface for at least 1 hour before being washed once with 0.1% Tween20 in a Biotek ELx405 plate washer. […]
On to `CN(CCN)Cc1c[nH]nc1-c1ccc(Cl)cc1F` [Compound 132], for which the IC50 (in general, the point on the concentration scale where inhibition reaches its midpoint) turned out to be 3.98 µM.

Turning to `CC(C)Oc1ccc(-c2n[nH]cc2CN(C)CCN)cc1F` [Compound 97], the midpoint of inhibition, the IC50, lay at 3.5 µM.

On to `COCCn1ncc(CN(C)CCN)c1-c1ccc(F)cc1` [Compound 6], for which the IC50 is above 50 µM.

For the molecule `Cc1c(F)cccc1-c1n[nH]cc1CN(C)CCN` [Compound 129], the IC50 was found to be 9.91 µM.

For `Cc1ccc(-c2n[nH]cc2CN(C)CCN)cc1Cl` [Compound 126], the IC50 is 2.55 µM.

On to `CN(CCN)Cc1c[nH]nc1-c1ccc(Cl)c(F)c1` [Compound 118], for which the IC50 was determined as 1.04 µM.

`CN(CCN)Cc1c[nH]nc1-c1ccc(C2CCOCC2)cc1` [Compound 98]: the IC50 was determined as 0.684 µM.

Consider `CC(O)c1ccc(-c2n[nH]cc2CN(C)CCN)cc1` (centres unmarked) [Compound 115], for which the IC50 was 8.32 µM.

Take `CN(CCN)Cc1c[nH]nc1-c1cccc(Cl)c1F` [Compound 123]: the IC50 turned out to be 3.92 µM.

As to `CN(CCN)Cc1n[nH]cc1-c1ccc(Cl)cc1` [Compound 102], the IC50 came to 6.16 µM. Compared with the last molecule, the IC50 is about 1.6-fold higher.

Molecule `CN(CCN)Cc1c[nH]nc1-c1ccc(C2CC2)cc1` [Compound 116] came in with an IC50 of 2.78 µM.

In turn, `CN(CCN)Cc1c[nH]nc1-c1ccc(C(F)(F)F)c(F)c1` [Compound 141] displayed an IC50 of 3.47 µM. This IC50 and that of the molecule before are within 1.5-fold of each other.

As for `CN(CCN)Cc1c[nH]nc1-c1cccc(Cl)c1` [Compound 122], the IC50 is 5.01 µM.

With `CCN(CC)C(=O)c1ccc(-c2n[nH]cc2CN(C)CCN)cc1` [Compound 143], the IC50 stood at 8.37 µM. Against the preceding molecule, the IC50 is about 1.7-fold higher.

`CN(CCN)Cc1c[nH]nc1-c1cc(Cl)cc(Cl)c1` [Compound 137] had an IC50 of 7.58 µM.

`Cc1cc(Cl)ccc1-c1n[nH]cc1CN(C)CCN` [Compound 133] displayed an IC50 of 4.1 µM. Compared with the last molecule, the IC50 is about 1.8-fold lower.

In turn, `Cc1cc(C#N)ccc1-c1n[nH]cc1CN(C)CCN` [Compound 110] had an IC50 of 7.21 µM. This IC50 is about 1.8-fold higher than that of the molecule before.

The molecule `COc1ccc(-c2n[nH]cc2CN(C)CCN)c(F)c1` [Compound 107] yielded an IC50 of 8 µM.

Molecule `COc1cc(Cl)cc(-c2n[nH]cc2CN(C)CCN)c1` [Compound 127] returned an IC50 of 5.65 µM.

`COc1cc(-c2n[nH]cc2CN(C)CCN)ccc1F` [Compound 142] showed an IC50 of 4.83 µM.

With `COc1cccc(-c2n[nH]cc2CN(C)CCN)c1` [Compound 130], the IC50 was found to be 6.46 µM.

Take `CCn1ncc(CN(C)CCNC)c1-c1ccc(F)cc1` [Compound 7]: the IC50 stood at 26 µM.

The molecule `CC(=O)c1cccc(-c2n[nH]cc2CN(C)CCN)c1` [Compound 112] gave an IC50 of 3.68 µM.

The molecule `CN(CCN)Cc1n[nH]cc1-c1ccc(OC2CC2)cc1` [Compound 119] had an IC50 of 9.6 µM. This IC50 is about 2.6-fold higher than that of the molecule before.

Consider `COc1ccc(-c2n[nH]cc2CN(C)CCN)cc1F` [Compound 134], for which the IC50 came to 5.44 µM.

Molecule `Cc1ccc(-c2n[nH]cc2CN(C)CCN)c(F)c1` [Compound 108] registered an IC50 of 9.91 µM.

In the case of `CN(CCN)Cc1c[nH]nc1-c1ccc(C(F)(F)F)c(Cl)c1` [Compound 117], 2.3 µM corresponded to half-maximal inhibition (IC50).

On to `CN(CCN)Cc1c[nH]nc1-c1cc(F)cc(F)c1` [Compound 111], for which inhibition was half-maximal at 5.39 µM (IC50).

`Cc1cccc(-c2n[nH]cc2CN(C)CCN)c1` [Compound 131] came in with an IC50 of 3.57 µM.

In turn, `CN(CCN)Cc1c[nH]nc1-c1ccc(OCC(F)(F)F)cc1` [Compound 96] returned an IC50 of 3.14 µM.

Turning to `COc1ccc(-c2n[nH]cc2CN(C)CCN)cc1Cl` [Compound 125], the midpoint of inhibition, the IC50, lay at 4.32 µM.

In the case of `CN(CCN)Cc1n[nH]cc1-c1ccc(OC(F)(F)F)cc1` [Compound 105], half-maximal inhibition (IC50) was put at 9.83 µM.

Consider `CCn1cc(CN(C)CCNC)c(-c2ccc(F)cc2)n1` [Compound 8], for which the IC50 was above 50 µM.

In turn, `CN(CCN)Cc1c[nH]nc1-c1cc(F)cc(Cl)c1` [Compound 121] had an IC50 of 2.88 µM.

The molecule `CN(CCN)Cc1c[nH]nc1-c1ccccc1C#N` [Compound 140] came in with an IC50 of 5.21 µM.

Molecule `CN(CCN)Cc1c[nH]nc1-c1ccc(OC2CC2)cc1` [Compound 114] yielded an IC50 of 3.2 µM.

`CN(CCN)Cc1c[nH]nc1-c1ccc(F)c(Cl)c1` [Compound 124] yielded an IC50 of 2.22 µM.

Consider `CN(CCN)Cc1n[nH]cc1-c1ccc(C#N)cc1` [Compound 100], for which half-maximal inhibition (IC50) was put at 7.26 µM.

For the origin of these results see patent publication US9776972B2, “Pyrazole derivatives as arginine methyltransferase inhibitors and uses thereof” (priority 2013, dated 2017).
